Reference: US10562912B2 (C&C Research Laboratories, priority 2013, dated 2020)

Tests used:
Assay type in all cases: cell-based
STAT3 = target: T1, STAT3 (Homo sapiens, UniProt P40763); assay: STAT3 reporter gene assay (luciferase), LNCaP stable cell line (pSTAT3-TA-luc), IL-6 stimulation
T1 construct: plasmid pSTAT3-TA-luc), which contains a stably operating STAT3 promoter; endogenous in cells
In short: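 LNCaP cells stably carrying pSTAT3-TA-luc, in RPMI1640 with 3% DCC-FBS, were treated with compound and then stimulated with 10 ng/mL IL-6 for 24–48 h at 37 °C. Luciferase activity was measured in lysates. A parallel plate measured viability by CellTiter-Glo, with stimulated 0.1% DMSO wells as the positive control.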

LNCaP = assay: Cell growth inhibition assay, prostate cancer cell line LNCaP (medium with 10 ng/mL IL-6); settings: Homo sapiens, medium supplemented with 10 ng/mL of IL-6, 10,000 cells/well
MDA-MB-231 = assay: Cell growth inhibition assay, breast cancer cell line MDA-MB-231; settings: Homo sapiens; MDA-MB-231 breast cancer cell line, 5,000 cells/well
Description: The inhibitory effects of the compounds of the present invention against the growth of cancer cells were evaluated as shown below. The cancer cell lines including stomach cancer cell line (AGS), breast cancer cell lines (MDA-MB-231, MDA-MB-468, and BT-549), prostate cancer cell lines (LNCaP and DU-145), colon cancer cell line (HCT116), ovarian cancer cell line (SW626), liver cancer cell line (Hep3B), kidney cancer cell line (ACHN), lung cancer cell line (NCI-H23) and blood cancer cell lines (HEL92.1.7 and U266) were cultured under the protocol provided by each supplier. A medium supplemented with 10 ng/mL of IL-6 was used for LNCaP, a prostate cancer cell line, when treated with a drug. Each type of cells to be used in experiments were sub-cultured in a 96-well plate by counting the exact number of cells using Tali™ Image-based Cytometer (Life Technologies). In a 96-well plate, AGS, HCT116, and DU-145 were employed with 3,000 cells/well; NCI-H23, SW626, Hep3B, ACHN, BT-549, MDA-MB-231, HEL92.1.7, and U266 were employed with 5,000 cells/well; and LNCaP and MDA-MB-468 were employed with 10,000 cells/well. The cells were treated with the compounds listed in Examples which were diluted in various concentrations. Upon completion of the compounds treatment, AGS, HCT116, SW626, DU145, NCI-H23, Hep3B, ACHN, BT-549, LNCaP, HEL92.1.7, and U266 cells were cultured at 37° C. under 5% CO2 for from 72 to 96 hours, and MDA-MB-231 and MDA-MB-468 cells were cultured at 37° C. in air for from 72 to 96 hours. Subsequently, the cells were observed under microscope and drug precipitation and particular findings were investigated and recorded. And then, the 96-well plate was placed at room temperature for 30 minutes, added with 20 μL/well of CellTiter-Glo solution (Cat No. G7573, Promega) and shaken for 10 minutes, followed by being subjected to the measurement using PHERAstar™ microplate reader (BMG LABTECH) according to the supplier's general luminometer protocol. Wells where only culture liquid added without cell plating were used as a negative control, whereas wells where culture liquid containing 0.1% DMSO instead of the compounds listed in Examples were used as a positive control.

T1 sequence (P40763 whole entry): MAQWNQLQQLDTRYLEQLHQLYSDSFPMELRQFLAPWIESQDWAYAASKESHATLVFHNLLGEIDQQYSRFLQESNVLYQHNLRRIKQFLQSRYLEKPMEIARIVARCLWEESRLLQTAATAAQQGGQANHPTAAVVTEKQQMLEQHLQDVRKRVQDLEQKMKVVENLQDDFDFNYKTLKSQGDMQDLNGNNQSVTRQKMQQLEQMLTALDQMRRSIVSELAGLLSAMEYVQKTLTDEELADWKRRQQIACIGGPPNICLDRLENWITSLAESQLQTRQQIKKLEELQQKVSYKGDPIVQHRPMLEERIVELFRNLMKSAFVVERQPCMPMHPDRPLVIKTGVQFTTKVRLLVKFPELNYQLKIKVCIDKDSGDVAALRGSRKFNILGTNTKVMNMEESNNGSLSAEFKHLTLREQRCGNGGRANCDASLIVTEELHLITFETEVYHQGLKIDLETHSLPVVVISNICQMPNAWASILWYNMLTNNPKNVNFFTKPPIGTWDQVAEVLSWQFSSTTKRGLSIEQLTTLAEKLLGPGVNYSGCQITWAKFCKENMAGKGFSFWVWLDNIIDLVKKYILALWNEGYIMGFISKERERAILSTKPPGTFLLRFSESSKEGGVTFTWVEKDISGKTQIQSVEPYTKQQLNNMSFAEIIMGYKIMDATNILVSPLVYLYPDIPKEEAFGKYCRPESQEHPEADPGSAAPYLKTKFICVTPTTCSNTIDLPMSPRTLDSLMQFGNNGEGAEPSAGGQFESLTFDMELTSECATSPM

SMILES | IC50 (STAT3) | IC50 (LNCaP) | IC50 (MDA-MB-231)
CC(C)(c1ccc(F)cc1)c1cc(NC(=O)c2cc3ccc(NS(C)(=O)=O)cc3[nH]2)cc(OC(F)F)c1 [Example 17, N-(3-(difluoromethoxy)-5-(2-(4-fluorophenyl)propan-2-yl)phenyl)-6-(methylsulfonamido)-1H-indole-2-carboxamide] | 0.14 µM | 0.92 µM | 0.19 µM
CC(C)(c1cc(Br)cc(NC(=O)c2cc3ccc(NS(C)(=O)=O)cc3[nH]2)c1)c1cccc(OCC(N)=O)c1 [Example 18, N-(3-(2-(3-(2-amino-2-oxoethoxy)phenyl)propan-2-yl)-5-bromophenyl)-6-(methylsulfonamido)-1H-indole-2-carboxamide] | 5.4 µM | 9.6 µM | 8.7 µM
CC(C)(c1cc(Br)cc(NC(=O)c2cc3ccc(NS(C)(=O)=O)cc3[nH]2)c1)c1cccc(OC(F)F)c1 [Example 20, N-(3-bromo-5-(2-(3-(difluoromethoxy)phenyl)propan-2-yl)phenyl)-6-(methylsulfonamido)-1H-indole-2-carboxamide] | 0.29 µM | 1.1 µM | 0.15 µM
CC(C)(c1cc(Br)cc(NC(=O)c2cc3ccc(NS(C)(=O)=O)cc3[nH]2)c1)c1cc(OC(F)(F)F)ccc1F [Example 23, N-(3-bromo-5-(2-(2-fluoro-5-(trifluoromethoxy)phenyl)propan-2-yl)phenyl)-6-(methylsulfonamido)-1H-indole-2-carboxamide] | 0.045 µM | 0.17 µM | 0.028 µM
CC(C)(c1ccc(F)cc1)c1cccc(NC(=O)c2cc3cc(OC(F)(F)F)ccc3[nH]2)c1 [Example 25, N-(3-(2-(4-fluorophenyl)propan-2-yl)phenyl)-5-(trifluoromethoxy)-1H-indole-2-carboxamide] | 3.3 µM | 4.2 µM | 3.2 µM
CC(C)(c1ccc(F)cc1)c1cccc(NC(=O)c2cc3cc(NS(C)(=O)=O)ccc3s2)c1 [Example 26, N-(3-(2-(4-fluorophenyl)propan-2-yl)phenyl)-5-(methylsulfonamido)benzo[b]thiophene-2-carboxamide] | 0.059 µM | 0.36 µM | 0.008 µM
CC(C)(c1cccc(NC(=O)c2cc3cc(NS(C)(=O)=O)ccc3s2)c1)c1ccc(F)cc1F [Example 27, N-(3-(2-(2,4-difluorophenyl)propan-2-yl)phenyl)-5-(methylsulfonamido)benzo[b]thiophene-2-carboxamide] | 0.08 µM | 0.67 µM | 0.033 µM
CC(C)(c1ccc(F)cc1)c1cccc(NC(=O)c2cc3cc(NS(C)(=O)=O)ccc3o2)c1 [Example 28, N-(3-(2-(4-fluorophenyl)propan-2-yl)phenyl)-5-(methylsulfonamido)benzofuran-2-carboxamide] | 0.61 µM | 4.7 µM | 1 µM
CC(C)(c1cccc(NC(=O)c2cc3cc(NS(C)(=O)=O)ccc3o2)c1)c1ccc(F)cc1F [Example 29, N-(3-(2-(2,4-difluorophenyl)propan-2-yl)phenyl)-5-(methylsulfonamido)benzofuran-2-carboxamide] | 0.53 µM | 3.8 µM | 0.47 µM
CC(C)(c1ccc(F)cc1)c1cccc(NC(=O)c2cc3ccc(NS(C)(=O)=O)cc3s2)c1 [Example 30, N-(3-(2-(4-fluorophenyl)propan-2-yl)phenyl)-6-(methylsulfonamido)benzo[b]thiophene-2-carboxamide] | 0.43 µM | 2.9 µM | 0.37 µM
CC(C)(c1cccc(NC(=O)c2cc3cc(NS(C)(=O)=O)ccc3s2)c1)c1ccccc1F [Example 31, N-(3-(2-(2-fluorophenyl)propan-2-yl)phenyl)-5-(methylsulfonamido)benzo[b]thiophene-2-carboxamide] | 0.19 µM | 0.49 µM | 0.026 µM
CC(C)(c1cccc(NC(=O)c2cc3cc(NS(C)(=O)=O)ccc3s2)c1)c1cccc(OC(F)(F)F)c1 [Example 37, 5-(methylsulfonamido)-N-(3-(2-(3-(trifluoromethoxy)phenyl)propan-2-yl)phenyl)benzo[b]thiophene-2-carboxamide] | 0.046 µM | 0.39 µM | 0.016 µM
COc1cccc(C(C)(C)c2cccc(NC(=O)c3cc4cc(NS(C)(=O)=O)ccc4s3)c2)c1 [Example 38, N-(3-(2-(3-methoxyphenyl)propan-2-yl)phenyl)-5-(methylsulfonamido)benzo[b]thiophene-2-carboxamide] | 0.1 µM | 0.8 µM | 0.049 µM
CC(C)(c1ccc(F)cc1)c1cc(NC(=O)c2cc3cc(NS(C)(=O)=O)ccc3s2)cc(OC(F)F)c1 [Example 39, N-(3-(difluoromethoxy)-5-(2-(4-fluorophenyl)propan-2-yl)phenyl)-5-(methylsulfonamido)benzo[b]thiophene-2-carboxamide] | 0.048 µM | 0.22 µM | 0.05 µM
CC(C)(c1ccc(F)cc1)c1cc(Cl)cc(NC(=O)c2cc3cc(NS(C)(=O)=O)ccc3s2)c1 [Example 40, N-(3-chloro-5-(2-(4-fluorophenyl)propan-2-yl)phenyl)-5-(methylsulfonamido)benzo[b]thiophene-2-carboxamide] | 0.076 µM | 0.37 µM | 0.006 µM
COc1cc(OC(F)(F)F)cc(C(C)(C)c2cc(NC(=O)c3cc4cc(NS(C)(=O)=O)ccc4s3)cc(OC(F)F)c2)c1 [Example 41, N-(3-(difluoromethoxy)-5-(2-(3-methoxy-5-(trifluoromethoxy)phenyl)propan-2-yl)phenyl)-5-(methylsulfonamido)benzo[b]thiophene-2-carboxamide] | 0.028 µM | 0.11 µM | 0.024 µM
CC(C)(c1cc(Br)cc(NC(=O)c2cc3cc(NS(C)(=O)=O)ccc3s2)c1)c1cc(OCC(N)=O)ccc1F [Example 44, N-(3-(2-(5-(2-amino-2-oxoethoxy)-2-fluorophenyl)propan-2-yl)-5-bromophenyl)-5-(methylsulfonamido)benzo[b]thiophene-2-carboxamide] | 1.4 µM | 5.2 µM | 4 µM
CC(C)(Oc1cccc(C(C)(C)c2cc(Br)cc(NC(=O)c3cc4cc(NS(C)(=O)=O)ccc4s3)c2)c1)C(N)=O [Example 45, N-(3-(2-(3-((1-amino-2-methyl-1-oxopropan-2-yl)oxy)phenyl)propan-2-yl)-5-bromophenyl)-5-(methylsulfonamido)benzo[b]thiophene-2-carboxamide] | 1.3 µM | 4.4 µM | 0.38 µM
CC(C)(c1cc(Br)cc(NC(=O)c2cc3cc(NS(C)(=O)=O)ccc3s2)c1)c1cccc(OC(F)F)c1 [Example 46, N-(3-bromo-5-(2-(3-(difluoromethoxy)phenyl)propan-2-yl)phenyl)-5-(methylsulfonamido)benzo[b]thiophene-2-carboxamide] | 0.082 µM | 0.13 µM | 0.029 µM
CC(C)(c1cc(Br)cc(NC(=O)c2cc3cc(NS(C)(=O)=O)ccc3s2)c1)c1cc(OC(F)(F)F)ccc1F [Example 47, N-(3-bromo-5-(2-(2-fluoro-5-(trifluoromethoxy)phenyl)propan-2-yl)phenyl)-5-(methylsulfonamido)benzo[b]thiophene-2-carboxamide] | 0.008 µM | 0.031 µM | 0.006 µM
Cc1c(C(=O)Nc2cccc(C(C)(C)c3ccc(F)cc3)c2)sc2cc(NS(C)(=O)=O)ccc12 [Example 51, N-(3-(2-(4-fluorophenyl)propan-2-yl)phenyl)-3-methyl-6-(methylsulfonamido)benzo[b]thiophene-2-carboxamide] | 0.55 µM | 3.5 µM | 0.62 µM
Cc1c(C(=O)Nc2cccc(C(C)(C)c3ccc(F)cc3)c2)sc2ccc(NS(C)(=O)=O)cc12 [Example 52, N-(3-(2-(4-fluorophenyl)propan-2-yl)phenyl)-3-methyl-5-(methylsulfonamido)benzo[b]thiophene-2-carboxamide] | 1.5 µM | 4.7 µM | 0.7 µM
